Tests used:
Format in all cases: cell-based
[1] = system: colorectal cancer cell line HT-29 cells; assay: Growth inhibitory effect against cancer cell lines (3H-thymidine uptake), HT-29; conditions: Homo sapiens, HT-29, inhibition of 3H-thymidine uptake; test substance 18 hrs, then 3H-thymidine 6 hrs; triplicate
Method in brief: (§1)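 IC50 = concentration reducing ^3H-thymidine incorporation to 50% of DMSO control, measured in triplicate. Compound added 24 hrs after plating (1.0×10^4 cells/well); label (0.25 μCi/well) given after 18 hrs of treatment, followed by 6 hrs further culture and scintillation counting of harvested cells.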

p27 protein = p27 protein induction test (Western blotting); conditions: test substance (0.1 1M), 24 hrs, ACHN cells or HT-29 cells, compared to DMSO, n=2
Method in brief: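 p27 level taken as anti-p27 band density by densitometry, mean of n=2, with DMSO as control. Samples loaded at amount equivalent to 10 μg BSA. Cells were ACHN or HT-29, exposed 24 h to […] test substance after 24 h pre-culture.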

[2] = system: ACHN cells or HT-29 cells; assay: Cell cycle analysis (flow cytometry, CycleTEST PLUS); conditions: test substance less than 10 μM, 24 hrs, compared to DMSO, n=2, read-out: CELL RATIO OF G0/G1 PHASE
Description: ACHN cells or HT-29 cells were cultured in a 6 well plate at 2.5×10^5 cells/1.8 mL/well for 24 hrs, then a test substance (less than 10 μM) dissolved in DMSO was added. After 24 hrs, cells were detached using trypsin-EDTA and the DNA content of single cell was analyzed by flow cytometry method using a CycleTEST PLUS (BECKTON DICKINSON) kit, and the proportion of the cells in the G0/G1 phase·S phase·G2/M phase was calculated. As a control, DMSO was used and the test was performed with n=2.

[3] = system: Renal cancer cell line ACHN cell; assay: Growth inhibitory effect against cancer cell lines (3H-thymidine uptake), ACHN; conditions: Homo sapiens, ACHN
Method in brief: as §1

p15 protein = assay: Evaluation of p15 induction activity (Western blotting); conditions: test substance 0.1 μM, 24 hrs, ACHN cells or HT-29 cells, compared to DMSO, n=2
Method in brief: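 p15 protein quantified by densitometry of anti-p15 Western blots (10 μg protein per lane, mean of n=2). Samples came from HT-29 or ACHN cells given 0.1 μM compound for 24 h after 24 h plating, with DMSO as control.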

Compound `Cc1c(=O)n(C)c(Nc2ccc(I)cc2F)c2c(=O)n(C3CC3)c(=O)n(-c3ccc4oc(=O)[nH]c4c3)c12` [Example 4-126] has an IC50 [1] of under 10 nM, a fold induction at 0.1 µM (p27 protein) of at least 1.5 and a fold induction at up to 10 µM [2] of at least 1.2. It also gave an IC50 [3] of under 10 nM and a fold induction at 0.1 µM (p15 protein) of at least 1.5.
In the case of `Cc1ccccc1-n1c(=O)n(C2CC2)c(=O)c2c(Nc3ccc(Cl)cc3)cc(=O)n(C)c21` [Example 1-102], the fold induction [2] is reported as at least 1.2 and the fold induction at 0.1 µM (p15 protein) is reported as at least 1.5.
For `CN(C)c1ccc(Nc2cc(=O)n(C)c3c2c(=O)n(C2CC2)c(=O)n3-c2ccccc2)cc1` [Example 1-88], the IC50 [1] was 100 to 1000 nM, the fold induction [2] was at least 1.2 and the IC50 [3] was 100 to 1000 nM. It also gave a fold induction at 0.1 µM (p15 protein) of at least 1.5.
`Cn1c(=O)cc(Nc2ccc(Cl)cc2Cl)c2c(=O)n(-c3ccccc3)c(=O)n(-c3ccccc3)c21` [Example 1-26] was tested, and the fold induction [2] was at least 1.2 and the fold induction at 0.1 µM (p15 protein) was at least 1.5.
In the case of `Cc1ccccc1-n1c(=O)n(C)c(=O)c2c(Nc3ccc(N(C)C)cc3)cc(=O)n(C)c21` [Example 1-99], the IC50 [1] is reported as 100 to 1000 nM, the fold induction [2] is reported as at least 1.2 and the fold induction at 0.1 µM (p15 protein) is reported as at least 1.5.
For `CCCCc1ccccc1Nc1cc(=O)n(C)c2c1c(=O)n(-c1ccccc1)c(=O)n2-c1ccccc1` [Example 1-51], the fold induction [2] was at least 1.2 and the fold induction at 0.1 µM (p15 protein) was at least 1.5.
Work on `Cn1c(=O)cc(Nc2ccc(Cl)cc2)c2c(=O)n(C3CC3)c(=O)n(-c3ccccc3)c21` [Example 1-84] yielded a fold induction [2] of at least 1.2 and a fold induction at 0.1 µM (p15 protein) of at least 1.5.
`CCCc1c(Nc2ccc(Cl)cc2)c2c(=O)n(-c3ccccc3)c(=O)n(-c3ccccc3)c2n(C)c1=O` [Example 1-91] showed a fold induction [2] of at least 1.2.
In the case of `Cc1cccc(-n2c(=O)n(C)c(=O)c3c(Nc4ccc(Cl)cc4)cc(=O)n(C)c32)c1` [Example 1-86], the fold induction [2] is reported as at least 1.2 and the fold induction at 0.1 µM (p15 protein) is reported as at least 1.5.
In the case of `CNc1ccc(Nc2cc(=O)n(C)c3c2c(=O)n(-c2ccccc2)c(=O)n3-c2ccccc2)cc1` [Example 1-49], the fold induction [2] is reported as at least 1.2 and the fold induction at 0.1 µM (p15 protein) is reported as at least 1.5.
For `CN(C)c1ccc(Nc2cc(=O)n(C)c3c2c(=O)n(-c2ccccc2)c(=O)n3-c2ccccc2)cc1` [Example 1-7], the IC50 [1] was 100 to 1000 nM, the fold induction [2] was at least 1.2 and the fold induction at 0.1 µM (p15 protein) was at least 1.5.
`Cc1ccccc1-n1c(=O)n(C)c(=O)c2c(Nc3ccc(Cl)cc3)cc(=O)n(C)c21` [Example 1-85] showed a fold induction [2] of at least 1.2 and a fold induction at 0.1 µM (p15 protein) of at least 1.5.
Work on `Cn1c(=O)cc(Nc2ccc(Cl)cc2)c2c(=O)n(C3CC3)c(=O)n(-c3ccccc3C(F)(F)F)c21` [Example 1-101] yielded a fold induction [2] of at least 1.2.
With `Cc1ccc(Nc2cc(=O)n(C)c3c2c(=O)n(-c2ccccc2)c(=O)n3-c2ccccc2)c(Cl)c1` [Example 1-34] the fold induction [2] was at least 1.2 and the fold induction at 0.1 µM (p15 protein) was at least 1.5.
`Cc1cc(N(C)C)ccc1Nc1cc(=O)n(C)c2c1c(=O)n(-c1ccccc1)c(=O)n2-c1ccccc1` [Example 1-55] gave an IC50 [1] of 100 to 1000 nM, a fold induction [2] of at least 1.2 and a fold induction at 0.1 µM (p15 protein) of at least 1.5.
For `CCc1ccccc1-n1c(=O)n(C2CC2)c(=O)c2c(Nc3ccc(Cl)cc3)cc(=O)n(C)c21` [Example 1-103], the fold induction [2] was at least 1.2 and the fold induction at 0.1 µM (p15 protein) was at least 1.5.
For `Cn1c(=O)cc(Nc2ccccc2Cl)c2c(=O)n(-c3ccccc3)c(=O)n(-c3ccccc3)c21` [Example 1-4], the fold induction [2] was at least 1.2 and the fold induction at 0.1 µM (p15 protein) was at least 1.5.
`Cc1ccccc1-n1c(=O)n(C)c(=O)c2c(Nc3ccc(Br)cc3)cc(=O)n(C)c21` [Example 1-95] was tested, and the IC50 [1] was 100 to 1000 nM, the fold induction [2] was at least 1.2 and the fold induction at 0.1 µM (p15 protein) was at least 1.5.
`Cn1c(=O)cc(Nc2ccc(Cl)cc2)c2c(=O)n(CC(F)(F)F)c(=O)n(-c3ccccc3)c21` [Example 1-90] was tested, and the fold induction [2] was at least 1.2.
Compound `COc1ccccc1-n1c(=O)n(C2CC2)c(=O)c2c(Nc3ccc(Cl)cc3)cc(=O)n(C)c21` [Example 1-104] has a fold induction [2] of at least 1.2 and a fold induction at 0.1 µM (p15 protein) of at least 1.5.
`CCn1c(=O)c2c(Nc3ccc(Cl)cc3)cc(=O)n(C)c2n(-c2ccccc2)c1=O` [Example 1-78] gave a fold induction [2] of at least 1.2 and a fold induction at 0.1 µM (p15 protein) of at least 1.5.
In the case of `CCc1ccccc1Nc1cc(=O)n(C)c2c1c(=O)n(-c1ccccc1)c(=O)n2-c1ccccc1` [Example 1-38], the fold induction [2] is reported as at least 1.2 and the fold induction at 0.1 µM (p15 protein) is reported as at least 1.5.
Work on `C#Cc1ccc(Nc2c3c(=O)n(C4CC4)c(=O)n(-c4cccc(NC(C)=O)c4)c3c(C)c(=O)n2C)c(F)c1` [Example 4-3, N-{3-[3-cyclopropyl-5-(4-ethynyl-2-fluorophenylamino)-6,8-dimethyl-2,4,7-trioxo-3,4,6,7-tetrahydro-2H-pyrido[4,3-d]pyrimidin-1-yl]phenyl}acetamide] yielded an IC50 [1] of under 10 nM, a fold induction at 0.1 µM (p27 protein) of at least 1.5 and a fold induction at up to 10 µM [2] of at least 1.2. It also gave an IC50 [3] of 10 to 100 nM and a fold induction at 0.1 µM (p15 protein) of at least 1.5.
`Cn1c(=O)cc(Nc2ccc(Cl)cc2)c2c(=O)n(-c3ccsc3)c(=O)n(-c3ccsc3)c21` [Example 1-77] was tested, and the fold induction [2] was at least 1.2 and the fold induction at 0.1 µM (p15 protein) was at least 1.5.
`CCn1c(=O)c2c(Nc3ccc(N(C)C)cc3)cc(=O)n(C)c2n(-c2ccccc2)c1=O` [Example 1-97] showed an IC50 [1] of 100 to 1000 nM, a fold induction [2] of at least 1.2 and a fold induction at 0.1 µM (p15 protein) of at least 1.5.
`Cn1c(=O)cc(Nc2ccc(Br)cc2)c2c(=O)n(C3CC3)c(=O)n(-c3ccccc3)c21` [Example 1-89] gave an IC50 [1] of 10 to 100 nM, a fold induction at 0.1 µM (p27 protein) of at least 1.5 and a fold induction [2] of at least 1.2. For the same compound, the IC50 [3] was 100 to 1000 nM and the fold induction at 0.1 µM (p15 protein) was at least 1.5.
Compound `CCCc1ccccc1Nc1cc(=O)n(C)c2c1c(=O)n(-c1ccccc1)c(=O)n2-c1ccccc1` [Example 1-50] has a fold induction [2] of at least 1.2.
Compound `CN(C)c1ccc(Nc2cc(=O)n(C)c3c2c(=O)n(CC(F)(F)F)c(=O)n3-c2ccccc2)cc1` [Example 1-93] has a fold induction [2] of at least 1.2 and a fold induction at 0.1 µM (p15 protein) of at least 1.5.
Compound `Cn1c(=O)cc(Nc2ccc(C(F)(F)F)cc2)c2c(=O)n(-c3ccccc3)c(=O)n(-c3ccccc3)c21` [Example 1-33] has a fold induction [2] of at least 1.2 and a fold induction at 0.1 µM (p15 protein) of at least 1.5.
`CCc1ccc(Nc2cc(=O)n(C)c3c2c(=O)n(-c2ccccc2)c(=O)n3-c2ccccc2)cc1` [Example 1-21] showed a fold induction [2] of at least 1.2.
`COc1ccc(Nc2cc(=O)n(C)c3c2c(=O)n(-c2ccccc2)c(=O)n3-c2ccccc2)cc1` [Example 1-9] was tested, and the fold induction [2] was at least 1.2 and the fold induction at 0.1 µM (p15 protein) was at least 1.5.
Work on `Cn1c(=O)cc(Nc2ccc(Br)cc2)c2c(=O)n(CC(F)(F)F)c(=O)n(-c3ccccc3)c21` [Example 1-92] yielded a fold induction [2] of at least 1.2 and a fold induction at 0.1 µM (p15 protein) of at least 1.5.
With `Cn1c(=O)cc(Nc2ccc(Cl)cc2)c2c(=O)n(C3CC3)c(=O)n(-c3ccccc3F)c21` [Example 1-100] the IC50 [1] was 100 to 1000 nM, the fold induction [2] was at least 1.2 and the fold induction at 0.1 µM (p15 protein) was at least 1.5.
`Cc1c(Nc2ccc(Cl)cc2)c2c(=O)n(-c3ccccc3)c(=O)n(-c3ccccc3)c2n(C)c1=O` [Example 1-43] was tested, and the fold induction [2] was at least 1.2 and the fold induction at 0.1 µM (p15 protein) was at least 1.5.
In the case of `CC(C)c1ccc(Nc2cc(=O)n(C)c3c2c(=O)n(-c2ccccc2)c(=O)n3-c2ccccc2)cc1` [Example 1-25], the fold induction [2] is reported as at least 1.2.
Compound `Cc1c(=O)n(C)c(Nc2ccc(I)cc2F)c2c(=O)n(C3CC3)c(=O)n(-c3cccc(NC(=O)CO)c3)c12` [Example 4-82] has an IC50 [1] of under 10 nM, a fold induction at 0.1 µM (p27 protein) of at least 1.5 and a fold induction at up to 10 µM [2] of at least 1.2. It also gave an IC50 [3] of 10 to 100 nM and a fold induction at 0.1 µM (p15 protein) of at least 1.5.
In the case of `Cc1c(=O)n(C)c(Nc2ccc(I)cc2F)c2c(=O)n(C3CC3)c(=O)n(-c3ccc(S(N)(=O)=O)cc3)c12` [Example 4-104], the IC50 [1] is reported as under 10 nM, the fold induction at 0.1 µM (p27 protein) is reported as at least 1.5 and the fold induction at up to 10 µM [2] is reported as at least 1.2. It also gave an IC50 [3] of under 10 nM and a fold induction at 0.1 µM (p15 protein) of at least 1.5.
Work on `Cc1ccc(Nc2cc(=O)n(C)c3c2c(=O)n(-c2ccccc2)c(=O)n3-c2ccccc2)cc1` [Example 1-6] yielded a fold induction [2] of at least 1.2 and a fold induction at 0.1 µM (p15 protein) of at least 1.5.
In the case of `Cn1c(=O)cc(Nc2ccc(Br)cc2)c2c(=O)n(-c3ccccc3)c(=O)n(-c3ccccc3)c21` [Example 1-11], the IC50 [1] is reported as 100 to 1000 nM, the fold induction [2] is reported as at least 1.2 and the fold induction at 0.1 µM (p15 protein) is reported as at least 1.5.
`Cn1c(=O)cc(Nc2ccc(Cl)cc2)c2c(=O)n(-c3ccccc3)c(=O)n(-c3ccccc3)c21` [Example 1-2] was tested, and the IC50 [1] was 100 to 1000 nM and the fold induction [2] was at least 1.2.
Work on `CCn1c(=O)c2c(Nc3ccc(Cl)cc3)cc(=O)n(C)c2n(-c2ccc(Cl)cc2)c1=O` [Example 1-94] yielded a fold induction at up to 10 µM [2] of at least 1.2 and a fold induction at 0.1 µM (p15 protein) of at least 1.5.
`CC(=O)Nc1cccc(-n2c(=O)n(C3CC3)c(=O)c3c(Nc4ccc(Br)cc4F)cc(=O)n(C)c32)c1` [Example 1-245] was tested, and the IC50 [1] was under 10 nM, the fold induction at 0.1 µM (p27 protein) was at least 1.5 and the IC50 [3] was 10 to 100 nM. For the same compound, the fold induction at 0.1 µM (p15 protein) was at least 1.5.
